{
  "source": "paper PMC10126473",
  "about": "(Frontiers in Pharmacology, 2023)",
  "key": {"[1]": {"experiment": "Kinetic aqueous solubility (Pion µSOL assay)", "conditions": "pH 7.4", "procedure": "Samples were incubated at room temperature for 6 h and vacuum-filtered using Tecan Te-Vac to remove any precipitates. The concentration of the compound in the filtrate was measured via UV absorbance (λ: 250–498 nm). […] All compounds were tested in duplicates. The kinetic solubility (µg/mL) of compounds was calculated using the µSOL Evolution software."}, "[2]": {"experiment": "Parallel artificial membrane permeability assay (PAMPA)", "conditions": "pH 7.4", "procedure": "The test samples (0.05 mM test article in pH 7.4 buffer with 0.5% DMSO) were added in the donor compartment and were stirred using the Gutbox technology (Pion Inc.) to reduce the aqueous boundary layer. The test article concentrations in the donor and acceptor compartments were measured using a UV plate reader (Nano Quant, Infinite 200 PRO, Tecan Inc., Männedorf, Switzerland)."}, "[3]": {"experiment": "Incubation in liver cytosolic fractions", "assay_type": "in vitro ADME", "conditions": "mouse, hamster, human, read-out: in vitro metabolic half-life (t1/2)", "procedure": "The in vitro metabolic stability of PDN was determined in the plasma and liver fractions of three species. […] Based on the formation of Nc in plasma, about 51%, 16%, and 10% of depleted PDN were converted to Nc in mouse, hamster, and human plasma, respectively. PDN was also metabolized in the liver microsomes. However, due to the fast metabolism of formed Nc in liver microsomes (sequential metabolism), only a trace amount of Nc was detected after incubation of PDN. Therefore, the metabolism kinetics of PDN was investigated to obtain the Vmax, in vitro, app and Km values of PDN depletion (Table 3)."}, "[4]": {"experiment": "Hamster PK and lung concentration study (non-compartmental analysis)", "conditions": "for half-life: t1/2 Observed; for Tmax: Tmax Observed", "procedure": "For the IV group, a single bolus IV dose of 3 mg/kg of PDN was administered to 24 hamsters (3 hamsters per time point). For the PO group, a dose of 30 mg/kg of PDN was administered via oral gavage to 21 hamsters (3 hamsters per time point). The formulation used for both IV and PO was 20% HP-β-CD in water (0.6 mg/mL PDN for IV and 3 mg/mL for PO). All dosing solutions were freshly prepared on the day of dosing. […] After collection, tissues were weighed and frozen. All blood samples were centrifuged at 4°C to obtain plasma. Plasma samples were transferred to tubes preloaded with NaF (final concentration at 5 mM in 200 µL plasma) and stored at −80°C until analysis.\nFor fat tissue, an additional 3-fold volume of acetonitrile was added to the water homogenate and was vortexed in a shaker for another 30 min.\nA 10 μ aliquot of samples, blank controls (blank plasma or tissue homogenates), quality controls (QC), and standards were added into 200 μ acetonitrile solution with 100 ng/mL tolbutamide (internal standard, IS). All samples were then thoroughly shaken for 5 min to precipitate proteins. The samples were centrifuged at 3000 rpm and 4°C for 30 min. The supernatant was injected for UPLC-MS/MS analysis.\nThe mobile phase consisted of 0.1% formic acid in water (A) and 0.1% formic acid in acetonitrile (B), the flow rate was 600 μL/min. […] All analyses were carried out using a Waters Acquity I-Class UPLC interfaced with a Waters Xevo TQ-S mass spectrometer. The mass spectrometer multiple reaction monitoring (MRM) experiment was operated with an ESI source at negative mode with spray voltage of 1 kV, and temperature of 600°C. Both Q1 and Q3 were set at unit resolution. […] The correlation coefficients of the calibration curves were all greater than 0.99. […] The linear range, precision and accuracy of QCs in various tissues and plasma are shown in Supplementary Table S1 and Supplementary Table S2.\nThe area under the concentration vs. time curve (AUC) was calculated using the linear trapezoidal method. The terminal rate constant (λ) was obtained from the slope of at least three data points of the apparent terminal phase of the log linear concentration vs. time curve. AUC0–∞ was estimated as the sum of the AUC0–t (where t is the time of the last measurable concentration) and Ct/λ. […] Bioavailability (F) was calculated using ratios of dose-normalized AUC of PO and IV administration."}, "[5]": {"experiment": "PBPK model (GastroPlus): simulation and model parameters incl. permeability surface product and scaled metabolic kinetics, mouse", "conditions": "for Liver Vmax / Plasma k: in vivo (scaled)", "procedure": "CL in vitro,app expressed as mL/min/mg microsomes were scaled to the predicted CLintrinsic using scaling factor (SF), microsome level and liver weight as indicated below: CLintrinsic=CLin vitro,app×SF×liver weight×microsome level per gram liver\nAll modeling and simulation were carried out using GastroPlus version 9.5 (Simulations Plus Inc., CA). Physiochemical parameters including blood-to-plasma ratio (Rbp), pKa, and logP were predicted by ADMET predictor (Simulations Plus Inc., CA). Physiologies of all species, including organ weights, volumes, tissue compositions, and blood perfusion rates, were generated by the program’s internal module. Tissue intracellular unbound fractions were generated by GastroPlus based on predicted or experimentally determined physiochemical and chemical-biological parameters including pKa, logP, plasma unbound fractions (Fup), Rbp, solubility, and PAMPA permeability. The PBPK model structure is illustrated in Figure 2 and its parameters are summarized in Supplementary Tables S3–6. The default absorption and dissolution model was applied and effective intestine permeability was predicted by a built-in correlation from the experimental PAMPA permeability result. Parameters including partition coefficients in tissue (Kp), CLintrinsic, and permeability surface area product (PStc) were estimated by fitting the model to experimental data using the optimization module in GastroPlus with objective function weights at 1/(y + ŷ)^2, where y is the observed value and ŷ is the predicted value.\nModel parameter estimation of all plasma-tissue partition coefficients (Kp) was performed simultaneously using both the IV and PO datasets. […] The experimentally determined pharmacokinetic profiles were compared with the model simulations."}, "[6]": {"experiment": "Metabolic stability and biotransformation in liver microsomes", "conditions": "for Liver Vmax: in vitro", "quoted_text": "(§1) The incubation was carried out at 37°C for 15, 30, and 60 min. The reaction in plasma or liver microsomes was quenched by adding 200 μL of cold acetonitrile (containing 100 ng/mL tolbutamide as internal standard).\n(§2) The mc was the microsome concentration used in the incubation (0.5 mg/mL). The substrate disappearance half-life (t1/2) was estimated by regression analysis of the semi-logarithmic (ln Conc vs. time) plots. […] The Vmax, in vitro,app, PDN-total and Km for PDN depletion in liver microsomes were estimated by the Michaelis-Menten model using GraphPad Prism version 8."}, "[7]": {"experiment": "Metabolic stability and biotransformation in liver microsomes", "conditions": "for Liver Vmax: in vitro", "remark": "listed apart in the source", "quoted_text": "as §1, §2"}, "[8]": {"conditions": "male, LVG golden Syrian, hamster, in vivo, iv, 3 mg/kg"}, "[9]": {"conditions": "male, LVG golden Syrian, hamster, in vivo, po, 30 mg/kg"}, "[10]": {"conditions": "male, LVG golden Syrian, hamster, in vivo, po, 30 mg/kg, hamsters, PO 30 mg/kg PDN, lung"}, "[11]": {"conditions": "male, LVG golden Syrian, hamster, in vivo, po, 30 mg/kg, hamsters, PO 30 mg/kg PDN, plasma"}},
  "note": "Values joined by “and” are separate entries in the source; they are usually repeats but may differ in a detail not shown here. Equal values may be shown once.",
  "data": [
    {"smiles": "O=C(Nc1ccc([N+](=O)[O-])cc1Cl)c1cc(Cl)ccc1OC(=O)N1CCNCC1", "note": "[PDN]", "values": [
      {"measurement": "increase in solubility compared with Nc", "setting": "[1]", "result": 40, "unit": "fold"},
      {"measurement": "solubility kinetic at 6 h", "setting": "[1]", "result": "> 43.5", "unit": "µg/mL"},
      {"measurement": "Papp at 0.05 mM", "setting": "[2]", "result": "> 100", "unit": "×10⁻⁶ cm/s"},
      {"measurement": "half-life", "setting": "[3]", "result": "> 2", "unit": "h"},
      {"measurement": "AUC0-∞ Observed", "setting": "[4]; hamsters, IV 3 mg/kg PDN, lung", "result": "45600 (4266) h*ng/g"},
      {"measurement": "AUC0-∞ Observed", "setting": "[4]; hamsters, PO 30 mg/kg PDN, lung", "result": "462000 (28500) h*ng/g"},
      {"measurement": "t1/2 Observed", "setting": "[4]; hamsters, PO 30 mg/kg PDN, plasma, 30 mg/kg", "result": "1.8 (0.13) h"},
      {"measurement": "AUC(0-inf)", "setting": "[4]; [8]", "result": 631, "unit": "ng·h/mL"},
      {"measurement": "Kp", "setting": "[4]; [8]", "result": 72},
      {"measurement": "Vd", "setting": "[4]; [8]", "result": 0.74, "unit": "L"},
      {"measurement": "clearance", "setting": "[4]; [8]", "result": 8, "unit": "mL/min"},
      {"measurement": "half-life", "setting": "[4]; male, LVG golden Syrian, hamster, in vivo, iv, 3 mg/kg, hamsters, IV 3 mg/kg PDN, lung", "result": 1.1, "unit": "h"},
      {"measurement": "half-life", "setting": "[4]; male, LVG golden Syrian, hamster, in vivo, iv, 3 mg/kg, hamsters, IV 3 mg/kg PDN, plasma", "result": 1.1, "unit": "h"},
      {"measurement": "AUC(0-inf)", "setting": "[4]; [9]", "result": 4320, "unit": "ng·h/mL"},
      {"measurement": "CL/F", "setting": "[4]; [9]", "result": 11.5, "unit": "mL/min"},
      {"measurement": "Cmax", "setting": "[4]; [9]", "result": "98000 ng/g and 1060 ng/mL"},
      {"measurement": "Kp", "setting": "[4]; [9]", "result": 107},
      {"measurement": "Vd/F", "setting": "[4]; [9]", "result": 1.78, "unit": "L"},
      {"measurement": "bioavailability", "setting": "[4]; [9]", "result": "~64", "unit": "%"},
      {"measurement": "Tmax", "setting": "[4]; [10]", "result": 1, "unit": "h"},
      {"measurement": "Tmax", "setting": "[4]; [11]", "result": 0.5, "unit": "h"},
      {"measurement": "half-life", "setting": "[4]; [10]", "result": 2.3, "unit": "h"},
      {"measurement": "half-life", "setting": "[4]; [11]", "result": "~1.8", "unit": "h"},
      {"measurement": "Liver Vmax", "setting": "[5]; conversion to Nc", "result": 0.0015, "unit": "mg/s/mg microsomes"},
      {"measurement": "Plasma k", "setting": "[5]; conversion to Nc", "result": 0.0067, "unit": "s⁻¹"},
      {"measurement": "Gut Vmax", "setting": "[5]; conversion to Nc, in vivo, predicted from in vitro liver parameters", "result": 0.00004, "unit": "mg/s/mg microsomes"},
      {"measurement": "Liver Vmax", "setting": "[5]; conversion to Others", "result": 0.2310, "unit": "mg/s/mg microsomes"},
      {"measurement": "Plasma k", "setting": "[5]; conversion to Others", "result": 0.0080, "unit": "s⁻¹"},
      {"measurement": "Liver Vmax", "setting": "[6]; conversion to Nc, mouse", "result": 0.00095, "unit": "mg/s/mg microsomes"},
      {"measurement": "Gut Vmax", "setting": "[6]; conversion to Nc, mouse, in vitro (in vitro liver parameters)", "result": 0.00095, "unit": "mg/s/mg microsomes"},
      {"measurement": "Liver Vmax", "setting": "[6]; conversion to Others, mouse", "result": 0.1484, "unit": "mg/s/mg microsomes"},
      {"measurement": "Vmax in vitro,app, PDN-total", "setting": "[6]; mouse liver microsomes", "result": "1.327 ± 0.106", "unit": "nmol/min/mg"},
      {"measurement": "Km", "setting": "[6]; mouse, pH 7.4", "result": "20.2 ± 3.31", "unit": "µM"},
      {"measurement": "Liver Vmax", "setting": "[7]; conversion to Nc, human", "result": 0.0002, "unit": "mg/s/mg microsomes"},
      {"measurement": "Gut Vmax", "setting": "[7]; conversion to Nc, human, in vitro (in vitro liver parameters)", "result": 0.00024, "unit": "mg/s/mg microsomes"},
      {"measurement": "Liver Vmax", "setting": "[7]; conversion to Others, human", "result": 0.0106, "unit": "mg/s/mg microsomes"},
      {"measurement": "Vmax in vitro,app, PDN-total", "setting": "[7]; human liver microsomes", "result": "0.365 ± 0.187", "unit": "nmol/min/mg"},
      {"measurement": "Km", "setting": "[7]; human, pH 7.4", "result": "33.8 ± 29.1", "unit": "µM"}
    ]}
  ]
}
